These are literature values, as cited in patent US6384084B2, “Histochrome and its therapeutic use in ophthalmology” (Tikhookeansky Institut Bioorganicheskoi Khimii …, priority 1998, dated 2002).

For series [1] the following is noted: patients, 0.5% solution.
For series [2] the following is noted: rabbits, 0.5% solution, subconjunctival and parabulbar.

Consider `CCc1nc(C)ccc1O` [Emoxipin], for which the “Resorption of intraocular hemorrhages” value (injection of a 1% solution) was “facilitates the resorption of intraocular hemorrhages”. Also, for the setting “monitoring of blood coagulation required”, the “Adverse effect in the course of therapy” value is “liable to cause reccurrent hemorrhages”.
Consider `CCc1c(O)c(O)c2c(c1O)C(=O)C(O)=C(O)C2=O` [echinochrome, 2,3,5,6,8-pentahydroxy-7-ethyl-1,4-naphthoquinone], for which the “Pain at the time of administration” value in series [1] is listed as “patients experienced acute pain at the time of administration”. For the same compound, the “Effect on epithelization of the cornea and inflammatory processes in eye burns” value in series [2] is “able to facilitate epithelization of the cornea at early stages of the treatment of eye burns and to alleviate inflammatory processes in the eye”.
